Reference: ChEMBL document CHEMBL5244214, “An update on small molecule strategies targeting leishmaniasis” (Eur J Med Chem, 2018)

Assays:
[1] = Cytotoxicity against mouse peritoneal macrophages assessed as reduction in cell viability incubated for 24 hrs by MTT assay; assay type: toxicity, cell-based, Peritoneal macrophage
Leishmania major [2] = experiment: Antileishmanial activity against Leishmania major MRHO/IR/75/E promastigotes assessed as parasite growth inhibition incubated for 24 hrs by MTT assay; assay type: functional, organism-based
Leishmania donovani = experiment: Antileishmanial activity against Leishmania donovani promastigotes assessed as parasite growth inhibition; assay type: functional, organism-based
Leishmania major [3] = experiment: Antileishmanial activity against Leishmania major assessed as inhibition of parasite growth; assay type: functional, organism-based
Leishmania aethiopica [4] = experiment: Antileishmanial activity against Leishmania aethiopica promastigotes assessed as parasite growth inhibition incubated for 24 hrs by alamar blue staining based analysis; assay type: functional, organism-based
Leishmania aethiopica [5] = experiment: Antileishmanial activity against Leishmania aethiopica axenic amastigotes assessed as parasite growth inhibition incubated for 72 hrs by resazurin staining based analysis; assay type: functional, organism-based
Leishmania major [6] = experiment: Antileishmanial activity against Leishmania major promastigotes assessed as parasite growth inhibition at 100 uM incubated for 72 hrs by MTT assay; assay type: functional; conditions: read-out: GI
Leishmania major [7] = experiment: Antileishmanial activity against Leishmania major promastigotes assessed as parasite growth inhibition at 10 uM incubated for 72 hrs by MTT assay; assay type: functional; conditions: read-out: GI
Leishmania major [8] = experiment: Antileishmanial activity against Leishmania major promastigotes assessed as parasite growth inhibition at 1 uM incubated for 72 hrs by MTT assay; assay type: functional; conditions: read-out: GI
Leishmania major [9] = experiment: Antileishmanial activity against Leishmania major promastigotes assessed as parasite growth inhibition at 0.1 uM incubated for 72 hrs by MTT assay; assay type: functional; conditions: read-out: GI

## CCCNC(=O)CSc1nnc(-c2ccc([N+](=O)[O-])o2)s1
[1]
  IC50 at 24 h: 59.7 µM
Leishmania major [2]
  IC50: 19.5 µM

## O=C(CSc1nnc(-c2ccc([N+](=O)[O-])o2)s1)NCc1ccccc1
[1]
  IC50 at 24 h: 86.9 µM
Leishmania major [2]
  IC50: 46.7 µM

## O=c1oc2ccccc2c(O)c1C(c1ccoc1)N1CCOCC1 (stereo unspecified)
Leishmania donovani
  IC50: 14.7 µM

## COCCCNc1nnc(-c2ccc([N+](=O)[O-])s2)s1
Leishmania major [3]
  IC50: 3 µM

## CN1CCN(C(c2c(O)c3ccccc3oc2=O)c2c[nH]c3ccccc23)CC1 (stereo unspecified)
Leishmania donovani
  IC50: 13.1 µM

## Cc1cccc2cc(C(c3c(O)c4ccccc4oc3=O)N3CCN(C)CC3)c(Cl)nc12 (stereo unspecified)
Leishmania donovani
  IC50: 6.9 µM

## COc1ccc(CCNC(=O)CSc2nnc(-c3ccc([N+](=O)[O-])o3)s2)cc1OC
[1]
  IC50 at 24 h: 56 µM
Leishmania major [2]
  IC50: 19.1 µM

## COc1nc(OC)nc(N(CC(=O)[C@@H](N)C(C)C)CC(=O)[C@@H](N)C(C)C)n1
Leishmania aethiopica [4]
  IC50: 1.4 µM
Leishmania aethiopica [5]
  IC50: 0.22 µM

## O=[N+]([O-])c1ccc(-c2nnc(NCCCO)s2)s1
Leishmania major [3]
  IC50: 3 µM

## COc1ccc(NC(=O)CCC(=O)O)c([N+](=O)[O-])c1
Leishmania major [6]
  inhibition of growth at 100 µM: 56.8%
Leishmania major [7]
  inhibition of growth at 10 µM: 50.4%
Leishmania major [8]
  inhibition of growth at 1 µM: 45.5%
Leishmania major [9]
  inhibition of growth at 0.1 µM: 59.3%

## C[C@@H]1[C@H](O)[C@@H](C)/C=C/C=C/C=C/C=C/C=C/C=C/C=C/[C@H](O[C@@H]2O[C@H](C)[C@@H](O)[C@H](N)[C@@H]2O)C[C@@H]2O[C@](O)(C[C@@H](O)C[C@@H](O)[C@H](O)CC[C@@H](O)C[C@@H](O)CC(=O)O[C@H]1C)C[C@H](O)[C@H]2C(=O)O [AMPHOTERICIN B]
Leishmania major [6]
  inhibition of growth at 100 µM: 79.8%
Leishmania major [7]
  inhibition of growth at 10 µM: 76.3%
Leishmania major [8]
  inhibition of growth at 1 µM: 74.8%
Leishmania major [9]
  inhibition of growth at 0.1 µM: 69.8%
